From ChEMBL document CHEMBL4616701, “Design, Synthesis, and Pharmacological Evaluation of Second Generation EZH2 Inhibitors with Long Residence Time” (ACS Med Chem Lett, 2020)
Calls of active or inactive are those of the source. No cut-off for these calls is given here.

Key:
KARPAS-422 [1] = assay: Antiproliferative activity against human KARPAS422 cells assessed as growth inhibition after 8 days by Cell Titer-Glo luminescent assay; format: functional; conditions: KARPAS-422, 192 h
[2] = biological target: T1, Histone-lysine N-methyltransferase EZH2 (Homo sapiens, UniProt Q15910); assay: Binding affinity to N-terminal FLAG-tagged EZH2 in PRC2 complex (unknown origin) expressed in baculovirus infected Sf9 cells assessed as residence time at 21 nM pre-equilibrated with enzyme followed by incubation with bio-EZH2i and measured after 3 to 6 mins by TR-FRET assay
Target sequence in this assay (Q15910 whole entry, looked up): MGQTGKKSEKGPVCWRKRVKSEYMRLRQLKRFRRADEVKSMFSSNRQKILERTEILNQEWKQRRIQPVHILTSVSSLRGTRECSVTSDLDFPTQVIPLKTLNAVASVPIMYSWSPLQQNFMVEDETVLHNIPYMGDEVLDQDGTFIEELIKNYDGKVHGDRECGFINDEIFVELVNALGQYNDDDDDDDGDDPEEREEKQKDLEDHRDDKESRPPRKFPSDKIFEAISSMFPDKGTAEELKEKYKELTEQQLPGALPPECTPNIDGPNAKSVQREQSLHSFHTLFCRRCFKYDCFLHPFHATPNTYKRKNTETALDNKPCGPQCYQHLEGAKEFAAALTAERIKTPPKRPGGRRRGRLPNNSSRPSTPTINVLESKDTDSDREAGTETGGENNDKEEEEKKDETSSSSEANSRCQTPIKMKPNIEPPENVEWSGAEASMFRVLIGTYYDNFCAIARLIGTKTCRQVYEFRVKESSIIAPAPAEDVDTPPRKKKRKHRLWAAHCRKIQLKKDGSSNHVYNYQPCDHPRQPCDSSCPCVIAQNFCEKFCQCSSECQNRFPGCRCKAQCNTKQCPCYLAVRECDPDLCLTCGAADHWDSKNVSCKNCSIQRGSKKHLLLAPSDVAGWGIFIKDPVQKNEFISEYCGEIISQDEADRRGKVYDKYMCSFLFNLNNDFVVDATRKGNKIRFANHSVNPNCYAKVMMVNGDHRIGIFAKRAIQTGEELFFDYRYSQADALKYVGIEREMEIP

[3] = biological target: T1, Histone-lysine N-methyltransferase EZH2; assay: Inhibition of EZH2 in human HeLa cells assessed as inhibition of trimethylation of H3K27 after 72 hrs by AlphaLISA assay; format: cell-based
Target sequence in this assay (Q15910 whole entry): as the sequence (Q15910 whole entry, looked up) above

[4] = biological target: T1, Histone-lysine N-methyltransferase EZH2; assay: Inhibition of N-terminal FLAG-tagged EZH2 in PRC2 complex (unknown origin) expressed in baculovirus infected Sf9 cells using H2N-RKQLATKAAR(Kme0)SAPATGGVKKP-NTPEGBiot peptide as substrate preincubated with [3H]SAM for 4 to 5 hrs followed by substrate addition and measured after 20 hrs by Topcount reader analysis
Target sequence in this assay (Q15910 whole entry): as the sequence (Q15910 whole entry, looked up) above

CYP3A4 = assay: Upregulation of CYP3A4 mRNA expression in human Fa2N-4 cells at 10 uM after 3 days relative to control; format: ADME, cell-based; conditions: read-out: FC
[5] = Toxicity in CB-17 SCID mouse xenografted with human KARPAS422 cells assessed as effect on body weight at 25 mg/kg, po bid and measured on day 21; format: organism-based, KARPAS-422; conditions: in vivo
[6] = Protein binding in mouse plasma; format: ADME, cell-free; conditions: read-out: PPB (converted)
KARPAS-422 [7] = assay: Antitumor activity against human KARPAS422 cells xenografted in CB-17 SCID mouse assessed as tumor growth inhibition at 25 mg/kg, po bid and measured on day 21 by caliper method relative to control; format: functional; conditions: KARPAS-422, po, 504 h, read-out: TGI
[8] = Protein binding in human plasma; format: ADME, cell-free; conditions: read-out: PPB (converted)
[9] = biological target: T1, Histone-lysine N-methyltransferase EZH2; assay: In vivo inhibition of EZH2 in CB-17 SCID mouse xenografted with human KARPAS422 cells assessed as reduction in trimethylation of H3K27 in tumor at 25 mg/kg, po bid for 21 days measured after 14 days by MSD-ELISA; format: functional, organism-based; conditions: KARPAS-422
Target sequence in this assay (Q15910 whole entry, looked up): as above

[10] = Time during which free drug concentration exceeds EC50 for inhibition of EZH2 in human HeLa cells in CB-17 SCID mouse xenografted with human KARPAS422 cells at 25 mg/kg, po bid for 21 days and measured up to 10 hrs post first dose at day 1 by LC-MS analysis; format: organism-based; conditions: in vivo
KARPAS-422 [11] = assay: Antitumor activity against human KARPAS422 cells xenografted in CB-17 SCID mouse assessed as tumor growth inhibition at 25 mg/kg, po bid and measured on day 25 by caliper method relative to control; format: functional; conditions: KARPAS-422, po, 600 h, read-out: TGI
[12] = Clearance in iv dosed mouse; format: ADME, organism-based; conditions: in vivo
[13] = Dose normalized AUClast in CB-17 SCID mouse xenografted with human KARPAS422 cells at 25 mg/kg, po bid for 21 days and measured after 10 hrs post first dose at day 1 by LC-MS analysis; format: ADME, organism-based, KARPAS-422; conditions: in vivo
[14] = Oral bioavailability in CB-17 SCID mouse xenografted with human KARPAS422 cells at 25 mg/kg, bid for 21 days measured up to 10 hrs post first dose at day 1 by LC-MS analysis; format: ADME, organism-based, KARPAS-422; conditions: in vivo
KARPAS-422 [15] = assay: Antitumor activity against human KARPAS422 cells xenografted in CB-17 SCID mouse assessed as tumor regression at 25 mg/kg, po bid and measured on day 14 by caliper method; format: functional, organism-based
[16] = Toxicity in CB-17 SCID mouse xenografted with human KARPAS422 cells assessed as body weight loss at 50 mg/kg, sc bid for 16 days; format: organism-based, KARPAS-422; conditions: in vivo, 384 h
CWR22R = assay: Antitumor activity against human 22Rv1 cells xenografted in CB-17 SCID mouse assessed as tumor growth inhibition at 50 mg/kg, sc bid and measured three times per week by caliper method relative to control; format: functional; conditions: 22Rv1, sc, read-out: TGI
KARPAS-422 [17] = assay: Antitumor activity against human KARPAS422 cells xenografted in CB-17 SCID mouse assessed as tumor regression at 50 mg/kg, sc bid for 16 days and measured at day 9 by caliper method; format: functional, organism-based
KARPAS-422 [18] = assay: Antitumor activity against human KARPAS422 cells xenografted in CB-17 SCID mouse assessed as tumor regression at 50 mg/kg, sc bid for 16 days and measured at day 7 by caliper method; format: functional, organism-based
KARPAS-422 [19] = assay: Antitumor activity against human KARPAS422 cells xenografted in CB-17 SCID mouse assessed as tumor growth inhibition at 50 mg/kg, sc bid for 16 days and measured three times per week by caliper method relative to control; format: functional; conditions: KARPAS-422, sc, 384 h, read-out: TGI
[20] = Oral bioavailability in mouse; format: ADME, organism-based; conditions: in vivo
KARPAS-422 [21] = assay: Antitumor activity against human KARPAS422 cells xenografted in CB-17 SCID mouse assessed as tumor regression at 160 mg/kg, po bid for 23 days and measured three times per week by caliper method; format: functional, organism-based

| SMILES | GI50 (KARPAS-422 [1]) [nM] | TIME [2] [h] | EC50 [3] [nM] | IC50 [4] [nM] | fold induction at 72 h, 10 µM (CYP3A4) | also measured |
| --- | --- | --- | --- | --- | --- | --- |
| COc1cc(C)[nH]c(=O)c1CNC(=O)c1c(C)n([C@H](C)C2CCN(CC(F)(F)F)CC2)c2ccccc12 [CPI-1205] | 436 | 4.5 | – | – | – | – |
| Cc1cc(SC2CCC2)c(CNC(=O)c2c(C)n([C@H](C)C3CCN(CC(F)(F)F)CC3)c3ccccc23)c(=O)[nH]1 | – | – | 48.5 | 0.49 | – | – |
| Cc1cc(C)c(CNC(=O)c2c(C)n([C@H](C)C3CCN(CC(F)(F)F)CC3)c3ccccc23)c(=O)[nH]1 | – | – | – | 0.2 to 30 | – | – |
| Cc1cc(Cl)c(CNC(=O)c2c(C)n([C@H](C)C3CCN(CC(F)(F)F)CC3)c3ccccc23)c(=O)[nH]1 | – | – | < 100 | 0.2 to 30 | – | – |
| CSc1cc(C)[nH]c(=O)c1CNC(=O)c1c(C)n([C@H](C)[C@H]2CC[C@H](NC3COC3)CC2)c2ccccc12 | – | 138 | 6.7 | 0.13 | 5 | – |
| CSc1cc(C)[nH]c(=O)c1CNC(=O)c1c(C)n([C@H](C)[C@H]2CC[C@H](N3CC(OC4CC4)C3)CC2)c2ncccc12 | 12 to 12.2 | 57.5 | 1.8 | 0.057 | 2.2 | Activity [5]: Non-Toxic; fraction unbound [6]: 0.13; inhibition in vivo at 25 mg/kg (KARPAS-422 [7]): 75%; fraction unbound [8]: 0.03; inhibition [9]: Active; T>fEC50 [10]: 4 h; inhibition in vivo at 25 mg/kg (KARPAS-422 [11]): ≥ 91%; clearance [12]: 55.8 mL/min/kg; AUClast/dose [13]: 46.5 ng·h/mL/(mg/kg); bioavailability [14]: 15%; Activity (KARPAS-422 [15]): Active |
| CSc1cc(C)[nH]c(=O)c1CNC(=O)c1c(C)n([C@H](C)[C@H]2OC[C@H](N(C)C)CO2)c2ccccc12 | – | 40.9 | 2.4 | 0.16 | 3 | – |
| CCSc1cc(C)[nH]c(=O)c1CNC(=O)c1c(C)n([C@H](C)C2CCN(CC(F)(F)F)CC2)c2ccccc12 | – | – | 45.3 | 0.73 | – | – |
| COC1CN([C@H]2CC[C@H]([C@@H](C)n3c(C)c(C(=O)NCc4c(SC)cc(C)[nH]c4=O)c4ccccc43)CC2)C1 | 33 | 141 | 2 | 0.059 | 2 | Activity [16]: Non-Toxic; inhibition in vivo at 50 mg/kg (CWR22R): 55%; Activity (KARPAS-422 [17]): Active |
| CSc1cc(C)[nH]c(=O)c1CNC(=O)c1c(C)n([C@H](C)C2CCN(CC(C)(C)O)CC2)c2ccccc12 | – | 7.52 | 26 | 0.067 | – | – |
| COc1cc(C)c(CNC(=O)c2c(C)n([C@H](C)C3CCN(CC(F)(F)F)CC3)c3ccccc23)c(=O)[nH]1 | – | – | > 1000 | 0.2 to 30 | – | – |
| CSc1cc(C)[nH]c(=O)c1CNC(=O)c1c(C)n([C@H](C)C2CCN(C3COC3)CC2)c2ccccc12 | – | 42.5 | 5.1 | 0.12 | 6.4 | – |
| Cc1cc(SCc2ccccc2)c(CNC(=O)c2c(C)n([C@H](C)C3CCN(CC(F)(F)F)CC3)c3ccccc23)c(=O)[nH]1 | – | – | – | 3.8 | – | – |
| CSc1cc(C)[nH]c(=O)c1CNC(=O)c1c(C)n([C@H](C)[C@H]2CC[C@H](N3CC(OC4CC4)C3)CC2)c2ncc(Cl)cc12 | 37 | 64.2 | 3.5 | 0.092 | 1.6 | – |
| CSc1cc(C)[nH]c(=O)c1CNC(=O)c1c(C)n([C@H](C)[C@H]2CC[C@H](N3CC(OC(F)F)C3)CC2)c2ccccc12 | 12 | 211 | 0.7 | 0.1 | 32 | – |
| Cc1cc(S(C)(=O)=O)c(CNC(=O)c2c(C)n([C@H](C)C3CCN(CC(F)(F)F)CC3)c3ccccc23)c(=O)[nH]1 | – | – | > 304 | 4.1 | – | – |
| Cc1cc(Cl)[nH]c(=O)c1CNC(=O)c1c(C)n([C@H](C)C2CCN(CC(F)(F)F)CC2)c2ccccc12 | – | – | > 1000 | 0.2 to 30 | – | – |
| CSc1cc(C)[nH]c(=O)c1CNC(=O)c1c(C)n([C@H](C)C2CCN(CC(F)(F)F)CC2)c2ccccc12 | 53 | 46.3 | 2.5 | 0.18 | 25 | Activity [16]: Non-Toxic; fraction unbound [6]: 0.002; fraction unbound [8]: 0.03; Activity (KARPAS-422 [18]): Active; clearance [12]: 9.33 mL/min/kg; inhibition in vivo at 50 mg/kg (KARPAS-422 [19]): 77 to 88%; bioavailability [20]: 40% |
| Cc1cc(Sc2ccccc2)c(CNC(=O)c2c(C)n([C@H](C)C3CCN(CC(F)(F)F)CC3)c3ccccc23)c(=O)[nH]1 | – | – | 181 | 0.62 | – | – |
| Cc1cc([S+](C)[O-])c(CNC(=O)c2c(C)n([C@H](C)C3CCN(CC(F)(F)F)CC3)c3ccccc23)c(=O)[nH]1 (stereo partly drawn) | – | – | > 304 | 19 | – | – |
| CSc1cc(C)[nH]c(=O)c1CNC(=O)c1c(C)n([C@H](C)[C@H]2CC[C@H](N3CC(OC4CC4)C3)CC2)c2c(F)cccc12 | 32 | 100 | 3.4 | 0.063 | – | – |
| CSc1cc(C)[nH]c(=O)c1CNC(=O)c1c(C)n([C@H](C)[C@H]2CC[C@H](N3CC(OC4CC4)C3)CC2)c2ncncc12 | 29 | 51.9 | 6.3 | 0.1 | – | – |
| CSc1cc(C)[nH]c(=O)c1CNC(=O)c1c(C)n([C@H](C)[C@H]2CC[C@H](N3CC(OC4CC4)C3)CC2)c2ccccc12 | 13 | 289 | 3.5 | 0.072 | 17 | – |
| CSc1cc(C)[nH]c(=O)c1CNC(=O)c1c(C)n([C@H](C)[C@H]2CC[C@H](N3CC(OC(F)(F)F)C3)CC2)c2ccccc12 | 32 | – | 1.8 | 0.14 | 41 | – |
| CCN(c1cc(-c2ccc(CN3CCOCC3)cc2)cc(C(=O)NCc2c(C)cc(C)[nH]c2=O)c1C)C1CCOCC1 | – | – | – | – | – | Activity (KARPAS-422 [21]): Active |
| CSc1cc(C)[nH]c(=O)c1CNC(=O)c1c(C)n([C@H](C)[C@H]2CC[C@H](N3CC(OC4CC4)C3)CC2)c2ncc(F)cc12 | 24 | 65.8 | 1.8 | 0.06 | 12 | – |
| CSc1cc(C)[nH]c(=O)c1CNC(=O)c1c(C)n([C@H](C)[C@H]2CC[C@@H](N3CC(F)(F)C3)CC2)c2ccccc12 | – | 29.1 | 5.9 | 0.18 | 45 | – |
